Measurements reported in patent US20230293495A1, “PHARMACEUTICAL FORMULATIONS FOR TREATING DISEASES MEDIATED BY KDM1A” (Imago Biosciences, Inc., priority 2020, published 2023).

Key:
[1] = Excipient compatibility study: binary mixtures of Compound B and excipient in open vials, assay and related substances (RS); format: physicochemical; settings: for RS-1 (related substance): in %; for Total related substances: in % (unit assumed)
Procedure: Commonly used excipients for oral solid dosage formulations were evaluated for this study including fillers, binders, disintegrants, glidants, lubricants and organic acid stabilizers.
Briefly, each excipient and API were individually weighed and filled in vials, followed by the addition of glass beads. The samples were closed, vortexed, and refrigerated at 2 to 8° C. prior to initiation of study as the sample preparation was executed over a period of 10 days. All vials were removed from the refrigerator and allowed to equilibrate to room temperature, then opened, and stored at the designated storage conditions at the same t=0.

KDM1A = KDM1A (Homo sapiens, UniProt O60341); test: Inhibition of KDM1A; format: biochemical

Compound	% LC (assay) ([1]; 1 week, 50° C./11% RH) [% LC]	RS-1 (related substance) ([1]; 1 week, 50° C./11% RH)	Total related substances ([1]; 1 week, 50° C./11% RH)	% LC (assay) ([1]; 1 week, 50° C./75% RH) [% LC]	Related substance RRT 1.081 ([1]; 1 week, 50° C./75% RH) [%]	RS-1 (related substance) ([1]; 1 week, 50° C./75% RH)	Total related substances ([1]; 1 week, 50° C./75% RH)	% LC (assay) ([1]; 2 weeks, 50° C./11% RH) [% LC]	RS-1 (related substance) ([1]; 2 weeks, 50° C./11% RH)	Total related substances ([1]; 2 weeks, 50° C./11% RH)	% LC (assay) ([1]; 2 weeks, 50° C./75% RH) [% LC]	Related substance RRT 1.081 ([1]; 2 weeks, 50° C./75% RH) [%]	RS-1 (related substance) ([1]; 2 weeks, 50° C./75% RH)	Total related substances ([1]; 2 weeks, 50° C./75% RH)	% LC (assay) ([1]; week 0) [% LC]	Related substance RRT 1.081 ([1]; week 0) [%]	RS-1 (related substance) ([1]; week 0)	Total related substances ([1]; week 0)	Inhibition of KDM1A, in words (KDM1A)
CN1CCN(C(=O)[C@H](CCCN[C@@H]2C[C@H]2c2ccc(F)cc2)NC(=O)c2ccc(-n3ccnn3)cc2)CC1.Cc1ccc(S(=O)(=O)O)cc1 [Compound B, N—((S)-5-((1R,2S)-2-(4-fluorophenyl)cyclopropylamino)-1-(4-methylpiperazin-1-yl)-1-oxopentan-2-yl)-4-(1H-1,2,3-triazol-1-yl)benzamide ditosylate]	98.824	0.1652	0.2245	102.663	0.0649	0.1453	0.2102	100.211	0.3516	0.4595	101.800	0.0715	0.3545	0.4260	102.973	0.0589	0.0935	0.1525	has shown activity for the inhibition of KDM1A
CN1CCN(C(=O)[C@H](CCCN[C@@H]2C[C@H]2c2ccc(F)cc2)NC(=O)c2ccc(-n3ccnn3)cc2)CC1 [Compound A, N—((S)-5-((1R,2S)-2-(4-fluorophenyl)cyclopropylamino)-1-(4-methylpiperazin-1-yl)-1-oxopentan-2-yl)-4-(1H-1,2,3-triazol-1-yl)benzamide]																			has shown activity for the inhibition of KDM1A
